# Test results reported in US20260232578A1, “COMPOSITIONS AND METHODS FOR TRANSMUCOSAL ABSORPTION” (Tonix Pharma Limited, priority 2012, published 2026).
# Counter-ions that a name gives are not always drawn. Like-named read-outs stand apart in the source and are kept apart here.
# Experiments:
# [1] = target: T1, adrenergic alpha-2A receptor (Alpha2A) (Homo sapiens, UniProt P08913); experiment: Equilibrium receptor binding, recombinant human receptor
# T1 construct: expressed in transfected cells
# T1 sequence (P08913 1-465): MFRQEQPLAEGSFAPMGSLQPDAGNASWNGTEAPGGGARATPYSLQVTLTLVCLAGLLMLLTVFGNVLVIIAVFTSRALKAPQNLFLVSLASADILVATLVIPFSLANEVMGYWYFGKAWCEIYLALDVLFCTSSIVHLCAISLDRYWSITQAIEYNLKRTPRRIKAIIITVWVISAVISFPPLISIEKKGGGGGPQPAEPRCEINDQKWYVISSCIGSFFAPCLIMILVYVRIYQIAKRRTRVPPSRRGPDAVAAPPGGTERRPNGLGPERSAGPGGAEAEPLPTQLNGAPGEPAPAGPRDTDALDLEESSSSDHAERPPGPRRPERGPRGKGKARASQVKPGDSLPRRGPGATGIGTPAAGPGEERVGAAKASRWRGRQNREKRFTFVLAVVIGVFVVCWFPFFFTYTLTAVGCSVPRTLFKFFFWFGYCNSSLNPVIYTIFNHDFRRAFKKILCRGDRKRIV
# [2] = target: T2, adrenergic alpha-2C receptor (Alpha2C) (Homo sapiens, UniProt P18825); experiment: as above
# T2 construct: expressed in transfected cells
# T2 sequence (P18825 1-462): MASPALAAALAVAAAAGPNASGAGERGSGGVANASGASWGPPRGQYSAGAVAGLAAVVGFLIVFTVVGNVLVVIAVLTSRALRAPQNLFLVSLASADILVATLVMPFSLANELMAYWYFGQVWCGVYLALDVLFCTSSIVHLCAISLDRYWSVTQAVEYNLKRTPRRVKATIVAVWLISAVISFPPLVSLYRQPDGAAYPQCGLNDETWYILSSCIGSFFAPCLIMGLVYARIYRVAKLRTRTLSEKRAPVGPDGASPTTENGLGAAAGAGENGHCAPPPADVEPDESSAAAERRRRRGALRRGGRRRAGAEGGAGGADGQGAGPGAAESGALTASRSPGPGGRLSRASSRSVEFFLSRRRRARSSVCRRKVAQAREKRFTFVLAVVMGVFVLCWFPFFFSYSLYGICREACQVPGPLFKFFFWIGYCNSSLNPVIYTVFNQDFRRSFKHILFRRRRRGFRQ
# 5-HT1A receptor = target: T3, 5-HT1A receptor (Homo sapiens, UniProt P08908); experiment: as above
# T3 construct: expressed in transfected cells
# T3 sequence (P08908 1-422): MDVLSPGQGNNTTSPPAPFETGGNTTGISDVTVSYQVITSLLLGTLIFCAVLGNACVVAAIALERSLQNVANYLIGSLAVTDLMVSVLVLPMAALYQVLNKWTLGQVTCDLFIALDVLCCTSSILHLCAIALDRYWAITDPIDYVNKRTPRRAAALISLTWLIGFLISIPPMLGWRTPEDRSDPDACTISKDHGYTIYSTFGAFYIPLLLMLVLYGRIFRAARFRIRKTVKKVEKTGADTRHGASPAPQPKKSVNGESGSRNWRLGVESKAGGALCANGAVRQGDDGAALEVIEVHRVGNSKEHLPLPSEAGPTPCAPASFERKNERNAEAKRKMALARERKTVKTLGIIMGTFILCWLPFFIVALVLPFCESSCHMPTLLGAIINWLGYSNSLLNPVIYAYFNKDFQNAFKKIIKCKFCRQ
# 5-HT2C receptor = target: T4, 5-HT2C receptor (Homo sapiens, UniProt P28335); experiment: as above
# T4 construct: expressed in transfected cells
# T4 sequence (P28335 33-458): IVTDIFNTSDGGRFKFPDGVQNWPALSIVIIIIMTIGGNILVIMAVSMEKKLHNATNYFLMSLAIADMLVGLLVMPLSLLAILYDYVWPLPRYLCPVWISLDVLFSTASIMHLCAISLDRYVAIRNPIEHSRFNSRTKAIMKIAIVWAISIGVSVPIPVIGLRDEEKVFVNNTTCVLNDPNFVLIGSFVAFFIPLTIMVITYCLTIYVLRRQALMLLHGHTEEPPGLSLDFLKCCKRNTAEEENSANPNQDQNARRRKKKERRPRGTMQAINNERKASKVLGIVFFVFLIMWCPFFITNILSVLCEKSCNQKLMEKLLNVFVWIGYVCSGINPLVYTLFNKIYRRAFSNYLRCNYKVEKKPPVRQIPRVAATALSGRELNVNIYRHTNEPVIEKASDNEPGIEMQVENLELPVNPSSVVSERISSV
# in vivo [3] = conditions: female, beagle, dog, 0.14 mg/kg
# Protocol: The protocol was designed as outlined in Table 23.
# The method requires a lithium heparinized plasma sample volume of 200 μl. The extraction is a liquid liquid extraction with hexane, and the extracts are injected using an HPLC system and an […] (Applied Biosystems) for the MS/MS detection, with a “Onyx monolithic Phenomenex C18 100×3.0 mm” column.
# Concentrations of the samples are calculated using Watson® 7.2.0.03 directly from chromatograms after automatic integration by Analyst® 1.5.1 and expressed as ng/mL. Mean plasma concentrations will be calculated (when calculable, i.e. n>2) using individual concentrations and will be expressed with the corresponding standard deviation value and variation coefficients (when calculable, i.e. n>3) (with CV(%)=(SD/mean)×100). The individual plasma concentrations are tabulated for each dog and scheduled sampling time. Concentrations below the LLOQ are designated as “BLQ.” All BLQ concentrations are substituted by zero for calculation of the descriptive statistics of the concentrations.
# Pharmacokinetic analysis is carried out using […]® (Version 4.3 (Thermo Electron Corporation)). An independent model (non compartmental analysis) is used. All BLQ values in the absorption phase are substituted by zero, except for BLQ values between evaluable concentrations, which are treated as missing values, before the calculation of the pharmacokinetic variables. The terminal BLQ values are ignored. The following pharmacokinetic parameters are calculated:
# 5 non-naive female dogs are used, each dog receiving the test substance by oral administration via nasogastric tube to the stomach (NG) administration, sublingual administration (SL), and by intravenous (IV) administration. There is a “wash-out” period of at least two weeks between each type of administration. Blood samples are drawn as follows:
# A single NG dose of 0.14 mg/kg (under a volume of 5 ml/kg and a solution concentration of 0.028 mg/mL) is administered.
# After a wash-out period of at least 2 weeks, dogs are sedated using propofol (6.5 mg/kg IV). They will be then given a single sublingual dose of 0.14 mg/kg (under a volume of 0.056 mL/kg and a solution concentration of 2.5 mg/mL).
# After a wash-out period of at least 2 weeks, dogs are given a single IV dose of 0.14 mg/kg (under a volume of 1 mL/kg, bolus of approximately 30 sec, and a solution concentration of 0.14 mg/mL).
# Blood sampling was designed to minimize animal suffering and to ensure the quality of the biological samples, and was adapted from basic procedures commonly used in studies performed in dogs. Serial blood samples (1 tube of approximately 5 mL) are collected from a jugular vein using vacuum tubes containing lithium heparin. After sealing each tube, the blood samples are manually agitated and stored on ice until centrifugation (within 30 minutes of sampling). The samples are centrifuged at 1500 g, at 4° C., for 10 minutes. The entire resultant plasma obtained from each tube is immediately transferred to suitably labeled polypropylene tubes (3 aliquots of plasma of at least 500 μl each), which are stored upright at approximately −80° C. and protected from light until bioanalysis.
# The dogs are fasted overnight before each administration, and food is given to the dogs 4 hours after each treatment. […] In each of the three routes, a potassium phosphate buffer (pH 7.4) is used as the vehicle.
# As referred to in Example 4, a study was designed in order to assess the effects of the compositions and methods of the invention. […] The pharmacokinetic parameters were then calculated. A summary of the study design is as follows:
# Blood was collected in a fasted condition for all three routes of administration. […] Briefly, the method involved liquid-liquid extraction with hexane. The extracts were injected using an HPLC system and an API4000® (Applied Biosystems) for the MS/MS detection, with an “Onyx monolithic Phenomenex C18 100×3.0 mm” column.
# in vivo [4] = conditions: beagle, dog; for AUC(0-t): AUCt
# Protocol: Each dog was sampled at pre-dose before and after Propofol (when possible) and at 5, 10 and 20 minutes post-dose.
# [5] = Protocol: The (KH2PO4) solution was prepared according to the current USP (USP 34) (Table 25). Briefly, 50 mL of 0.2 M monobasic potassium phosphate (KH2PO4) was mixed with 39.1 mL of 0.2 M NaOH, and water was added to bring the solution to a final volume of 200 mL. During the test, the change in the pH of the solution also was measured for each addition.
# [6] = 25° C.; cited from earlier work
# muscarinic M2 receptor = muscarinic M2 receptor (Homo sapiens, UniProt P08172); experiment: Equilibrium receptor binding, recombinant human receptor; parameters: expressed in transfected cells
# Sequence of muscarinic M2 receptor (P08172 whole entry): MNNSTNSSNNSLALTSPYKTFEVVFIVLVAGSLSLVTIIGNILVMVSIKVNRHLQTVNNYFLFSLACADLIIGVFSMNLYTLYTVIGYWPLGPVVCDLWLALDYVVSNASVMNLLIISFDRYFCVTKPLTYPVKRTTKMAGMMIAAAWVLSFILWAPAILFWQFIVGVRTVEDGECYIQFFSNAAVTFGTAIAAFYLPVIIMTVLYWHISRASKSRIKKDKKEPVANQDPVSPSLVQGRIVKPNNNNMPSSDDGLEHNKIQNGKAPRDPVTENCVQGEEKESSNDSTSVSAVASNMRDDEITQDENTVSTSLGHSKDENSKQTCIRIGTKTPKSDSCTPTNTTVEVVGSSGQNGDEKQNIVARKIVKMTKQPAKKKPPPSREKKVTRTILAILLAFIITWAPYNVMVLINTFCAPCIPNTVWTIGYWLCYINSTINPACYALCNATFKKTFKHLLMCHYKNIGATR
# [7] = iv, Cyclobenzaprine plasma concentration
# [8] = po, Cyclobenzaprine plasma concentration
smiles,measurement,setting,value
"CN(C)CCC=C1c2ccccc2CCc2ccccc21 [amitriptyline, 3-(10,11-dihydro-5H-dibenzo [a,d]cycloheptene-5-ylidene)-N,N-dimethyl-1-propanamine]",Ki,[1],250 nM
same,Ki,[2],14 nM
same,Ki,5-HT1A receptor,220 nM
same,Ki,5-HT2C receptor,28 nM
CN(C)CCC=C1c2ccccc2C=Cc2ccccc21 [cyclobenzaprine HCl],AUC(0-inf),"in vivo [3]; iv, AUCinf",44.9 ± 4.15 ng·h/mL
same,AUC(0-t),"in vivo [3]; iv, AUCt",43.5 ng·h/mL
same,clearance,"in vivo [3]; iv, Cl",52.3 mL/min/kg
same,concentration at 10 min,in vivo [3]; [7],21.1 ng/mL
same,concentration at 20 min,in vivo [3]; [7],17.3 ng/mL
same,concentration at 0.5 h,in vivo [3]; [7],14.3 ng/mL
same,concentration at 1 h,in vivo [3]; [7],9 ng/mL
same,concentration at 2 h,in vivo [3]; [7],6.5 ng/mL
same,concentration at 3 h,in vivo [3]; [7],4.43 ng/mL
same,concentration at 24 h,in vivo [3]; [7],0.1 ng/mL
same,Cl (Cl/F),in vivo [3]; po,1206 mL/min/kg
same,Kel,in vivo [3]; po,0.4782 h⁻¹
same,CL/F,"in vivo [3]; po, Cl (Cl/F)",1210 mL/min/kg
same,concentration at 6 h,in vivo [3]; [8],0.15 ng/mL
same,concentration at 8 h,in vivo [3]; [8],0.126 ng/mL
same,concentration at 10 h,in vivo [3]; [8],0.112 ng/mL
same,Vd/F,"in vivo [3]; po, Vd (Vd/F)",151 L/kg
same,half-life,"in vivo [3]; po, t1/2",86.9 min
same,AUCt,in vivo [4],22.78 ng·h/mL
same,Bioavailability F % IV without propofol vs sublingual with propofol,in vivo [4],197.0%
same,Cmax,in vivo [4],92.23 ng/mL
same,Tmax,in vivo [4],10 min
same,AUC(0-t),in vivo [4],17.4 ng·h/mL
same,Cmax,in vivo [4]; Cmax,75.6 ng/mL
same,AUCt,in vivo [4]; iv,11.56 ng·h/mL
same,Cmax,in vivo [4]; iv,40.10 ng/mL
same,Tmax,in vivo [4]; iv,5 min
same,AUC(0-t),in vivo [4]; iv,7.67 ng·h/mL
same,Cmax,"in vivo [4]; iv, Cmax",26.8 ng/mL
same,pH value,[5]; 10 g added to 100 mL Phosphate Buffer Solution pH 7.4,6.43
same,pH value,[5]; 10 g added to 100 mL purified water,3.31
same,pH value,[5]; 15 g added to 100 mL Phosphate Buffer Solution pH 7.4,6.29
same,pH value,[5]; 15 g added to 100 mL purified water,3.24
same,pH value,[5]; 20 g added to 100 mL Phosphate Buffer Solution pH 7.4,6.21
same,pH value,[5]; 20 g added to 100 mL purified water,3.16
same,pH value,[5]; 25 g added to 100 mL Phosphate Buffer Solution pH 7.4,6.15
same,pH value,[5]; 25 g added to 100 mL purified water,3.11
same,pH value,[5]; 30 g added to 100 mL Phosphate Buffer Solution pH 7.4,6.10
same,pH value,[5]; 30 g added to 100 mL purified water,3.07
same,solubility state in solution,[5]; […] at 7.4 containing K2HPO4 or KH2PO4,close to its saturation point
same,acid dissociation constant (pKa) for the amine group,[6],approximately 8.5
CNCCC=C1c2ccccc2CCc2ccccc21 [nortriptyline],Ki,5-HT1A receptor,100 nM
same,Ki,muscarinic M2 receptor,140 nM
